Data on four compounds can be found in ChEMBL document CHEMBL1152194, “Substituent control of DNA binding modes in a series of chalcogenoxanthylium photosensitizers as determined by isothermal titration calorimetry and topoisomerase I DNA unwinding assay” (Bioorg Med Chem, 2008).

Data set [1] can be described thus: physchem. The settings on record: octanol/water.
A short description of data set [2]: Selectivity for Kb of [poly(dAdT)]2 DNA to Kb of [poly(dCdG)]2 DNA.
Data set [3] deals with T1, DNA topoisomerase 1 (Homo sapiens) (UniProt P11387).
T1 sequence (whole entry): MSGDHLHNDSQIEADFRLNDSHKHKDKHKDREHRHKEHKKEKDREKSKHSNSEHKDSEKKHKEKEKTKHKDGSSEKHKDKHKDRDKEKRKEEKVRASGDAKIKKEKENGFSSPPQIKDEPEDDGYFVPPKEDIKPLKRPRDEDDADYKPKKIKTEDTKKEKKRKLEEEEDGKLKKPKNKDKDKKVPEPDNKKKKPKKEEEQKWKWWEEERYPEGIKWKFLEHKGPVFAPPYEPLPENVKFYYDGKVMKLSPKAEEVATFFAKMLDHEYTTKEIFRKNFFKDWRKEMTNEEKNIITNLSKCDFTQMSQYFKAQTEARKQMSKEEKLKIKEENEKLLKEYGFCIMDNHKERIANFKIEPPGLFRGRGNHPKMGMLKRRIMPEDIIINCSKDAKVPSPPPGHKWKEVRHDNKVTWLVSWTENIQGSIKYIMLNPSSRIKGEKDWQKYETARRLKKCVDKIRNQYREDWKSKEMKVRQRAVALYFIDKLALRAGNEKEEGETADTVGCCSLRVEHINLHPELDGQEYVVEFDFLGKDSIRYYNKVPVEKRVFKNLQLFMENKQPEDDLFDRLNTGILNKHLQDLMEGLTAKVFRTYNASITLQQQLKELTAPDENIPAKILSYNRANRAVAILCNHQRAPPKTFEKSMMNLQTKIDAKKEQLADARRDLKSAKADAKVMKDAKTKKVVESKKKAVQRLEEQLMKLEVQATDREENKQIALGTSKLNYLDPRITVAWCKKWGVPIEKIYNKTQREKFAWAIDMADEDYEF
Nature of the data set: Inhibition of human DNA topoisomerase 1-induced unwinding activity using Escherichia coli pUC19 DNA assessed as bound compound per nucleotide pair at 24 uM.

Data set [4] has as its system DNA. Nature of the data set: Binding affinity to ultrapure calf thymus DNA in MESOO buffer at pH 6.25 at 30 degC by isothermal titration calorimetry assay. The data set is classed as nucleic-acid assay, Bos taurus.

What is called logP is a log measure of how a compound divides between an organic and an aqueous phase. High values mean a more lipophilic compound, low ones a more hydrophilic compound.

As for `CN(C)c1ccc2c(-c3ccccc3)c3ccc(=[N+](C)C)cc-3[se]c2c1`, the logP in data set [1] was found to be 0.09. Further, the Ratio pKb in data set [2] worked out at 3.

Take `CCN(CC)C(=O)c1sccc1-c1c2ccc(=[N+](C)C)cc-2sc2cc(N(C)C)ccc12`: the Activity in data set [3] amounted to 0.9.

`CN(C)c1ccc2c(-c3cccs3)c3ccc(=[N+](C)C)cc-3[te]c2c1.F[P-](F)(F)(F)(F)F`: the Kd in data set [4] was determined as 2.1 ×10⁶ /M.

With `CN(C)c1ccc2c(-c3cccs3)c3ccc(=[N+](C)C)cc-3[se]c2c1`, the logP in data set [1] was -0.31.
